Assay results published in ChEMBL document CHEMBL1201862, “PubChem BioAssay data set” (2004).
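Tested at 5 concentrations; 48 h exposure; 96-well plates; endpoints linearly interpolated, else capped at highest concentration. The concentration for 50% growth inhibition is given as GI50.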 Calls of active or inactive are those of the source. Rule as the data show it: active = GI50 up to about 1.1 µM and inactive = higher.

What was measured:
Assay in all cases: growth of human tumour cells (NCI), 48 h
HT-29 = tested on: HT-29
NCI-H522 = tested on: NCI-H522
SF-268 = tested on: SF-268
RXF 393 = tested on: RXF 393
MDA-MB-435 = tested on: MDA-MB-435
UACC-257 = tested on: UACC-257
Malme-3M = tested on: Malme-3M
MDA-MB-231 = tested on: MDA-MB-231
HCC 2998 = tested on: HCC 2998
HOP-92 = tested on: HOP-92
MCF7 = tested on: MCF7
CAKI-1 = tested on: CAKI-1
OVCAR-3 = tested on: OVCAR-3
LOX IMVI = tested on: LOX IMVI
NCI-H226 = tested on: NCI-H226
SN12C = tested on: SN12C
UO-31 = tested on: UO-31
NCI-H460 = tested on: NCI-H460
Hs-578T = tested on: Hs-578T
SK-OV-3 = tested on: SK-OV-3

Measured: GI50

Oc1nc2ccccc2c(O)c1Cc1ccccc1
inactive: HT-29 > 100 µM | NCI-H522 > 100 µM | SF-268 > 100 µM | RXF 393 > 100 µM | MDA-MB-435 > 100 µM | UACC-257 > 100 µM | Malme-3M > 100 µM | MDA-MB-231 > 100 µM | HCC 2998 > 100 µM | HOP-92 > 100 µM | MCF7 > 100 µM | CAKI-1 > 100 µM | OVCAR-3 > 100 µM | LOX IMVI > 100 µM | NCI-H226 > 100 µM | SN12C > 100 µM | UO-31 > 10 µM | NCI-H460 > 100 µM | Hs-578T > 100 µM

Oc1ccc(C[C@@H]2CN[C@H](Cc3ccc(O)c(Br)c3)CN2)cc1
inactive: HT-29 > 100 µM | NCI-H522 > 100 µM | SF-268 > 100 µM | RXF 393 84.3 µM | MDA-MB-435 > 100 µM | UACC-257 > 100 µM | SK-OV-3 > 100 µM | MDA-MB-231 > 100 µM | HCC 2998 > 100 µM | HOP-92 > 100 µM | MCF7 > 100 µM | CAKI-1 > 100 µM | OVCAR-3 > 100 µM | NCI-H226 > 100 µM | SN12C > 100 µM | UO-31 > 100 µM | Hs-578T > 100 µM

[N-]=[N+]=NC1=C(c2ccccn2)C(=O)c2cccc3cccc1c23
inactive: HT-29 21.1 µM | SF-268 12 µM | RXF 393 37.2 µM | MDA-MB-435 36.5 µM | UACC-257 32.8 µM | SK-OV-3 36.7 µM | Malme-3M 49.2 µM | MDA-MB-231 69.3 µM | HCC 2998 57.5 µM | HOP-92 29.9 µM | MCF7 23.6 µM | CAKI-1 26.7 µM | OVCAR-3 27.7 µM | LOX IMVI 8.65 µM | SN12C 20.8 µM | UO-31 7.48 µM | NCI-H460 12 µM | Hs-578T 27 µM

Nc1ncc(Br)c(NCC2(CO)CCC2)n1
inactive: HT-29 > 100 µM | NCI-H522 92 µM | SF-268 > 100 µM | RXF 393 > 100 µM | MDA-MB-435 > 100 µM | UACC-257 > 100 µM | Malme-3M > 100 µM | MDA-MB-231 > 100 µM | HCC 2998 > 100 µM | HOP-92 56.1 µM | MCF7 > 100 µM | CAKI-1 49.8 µM | OVCAR-3 > 100 µM | LOX IMVI > 100 µM | NCI-H226 66.8 µM | SN12C > 100 µM | UO-31 79.6 µM | NCI-H460 71.9 µM | Hs-578T > 100 µM

COC(=O)C1CC(C=O)=C(SC)N1 (configuration not stated)
inactive: HT-29 > 50 µM | NCI-H522 > 50 µM | SF-268 > 50 µM | RXF 393 > 50 µM | MDA-MB-435 > 50 µM | UACC-257 > 50 µM | SK-OV-3 > 50 µM | Malme-3M > 50 µM | MDA-MB-231 > 50 µM | HCC 2998 > 50 µM | HOP-92 > 50 µM | MCF7 > 50 µM | CAKI-1 > 50 µM | OVCAR-3 > 50 µM | UO-31 > 50 µM | NCI-H460 > 50 µM | Hs-578T > 50 µM

CN1C(=O)C(C(N)=O)C2CC1(C)Oc1ccccc12 (configuration not stated)
inactive: HT-29 > 100 µM | NCI-H522 > 100 µM | SF-268 > 100 µM | RXF 393 > 100 µM | MDA-MB-435 > 100 µM | UACC-257 > 100 µM | SK-OV-3 > 100 µM | Malme-3M > 100 µM | MDA-MB-231 > 100 µM | HCC 2998 > 100 µM | HOP-92 > 100 µM | MCF7 > 100 µM | CAKI-1 > 100 µM | OVCAR-3 > 100 µM | LOX IMVI > 100 µM | NCI-H226 > 100 µM | SN12C > 100 µM | NCI-H460 > 100 µM | Hs-578T > 100 µM

O=C(OCc1ccccc1)N1c2cc([N+](=O)[O-])ccc2C(=O)N2CCC[C@H]2C1O (some centres not stated)
inactive: HT-29 > 100 µM | NCI-H522 > 100 µM | SF-268 > 100 µM | RXF 393 > 100 µM | MDA-MB-435 > 100 µM | UACC-257 > 100 µM | SK-OV-3 > 100 µM | MDA-MB-231 > 100 µM | HCC 2998 > 100 µM | HOP-92 > 100 µM | MCF7 > 100 µM | CAKI-1 > 100 µM | OVCAR-3 > 100 µM | LOX IMVI > 100 µM | NCI-H226 > 100 µM | SN12C > 100 µM | UO-31 > 100 µM | NCI-H460 > 100 µM | Hs-578T > 100 µM

Nc1nc2c(ncn2CC2CCC(CO)C2)c(=O)[nH]1 (configuration not stated)
inactive: SF-268 > 100 µM | RXF 393 > 100 µM | MDA-MB-435 > 100 µM | UACC-257 > 100 µM | SK-OV-3 > 100 µM | MDA-MB-231 > 100 µM | HCC 2998 > 100 µM | HOP-92 > 100 µM | MCF7 > 100 µM | CAKI-1 > 100 µM | OVCAR-3 > 100 µM | LOX IMVI > 100 µM | NCI-H226 > 100 µM | SN12C > 100 µM | UO-31 > 100 µM | Hs-578T > 100 µM

Cc1nc2c(sc3nc4c(cc32)CCC4)c(=O)o1
inactive: HT-29 36.7 µM | NCI-H522 31 µM | SF-268 49.7 µM | RXF 393 > 100 µM | MDA-MB-435 36.6 µM | UACC-257 89.1 µM | SK-OV-3 > 100 µM | MDA-MB-231 > 92.5 µM | HCC 2998 28.6 µM | HOP-92 > 50.1 µM | MCF7 > 81.3 µM | CAKI-1 > 100 µM | OVCAR-3 37.8 µM | LOX IMVI 41.4 µM | NCI-H226 > 96.2 µM | SN12C 98.2 µM | UO-31 > 56.1 µM | NCI-H460 > 59.8 µM | Hs-578T 45.9 µM

CC1=C(Cl)C[C@@H](/C(C)=C\Cl)O[C@@]1(O)C(Br)Br
inactive: HT-29 32.1 µM | NCI-H522 18.9 µM | SF-268 32.7 µM | RXF 393 19.2 µM | MDA-MB-435 31.6 µM | UACC-257 35.3 µM | SK-OV-3 > 100 µM | Malme-3M 24.5 µM | MDA-MB-231 19.5 µM | HCC 2998 33.3 µM | HOP-92 25.2 µM | MCF7 18.2 µM | CAKI-1 18.5 µM | OVCAR-3 17.5 µM | LOX IMVI 31.7 µM | SN12C 19.5 µM | UO-31 25.3 µM | NCI-H460 41.1 µM | Hs-578T 45.5 µM

O=C(CCC(NC(=O)OCc1ccccc1)C(=O)OCc1ccccc1)Nc1ccc(OCc2ccccc2)cc1 (configuration not stated)
inactive: HT-29 26.6 µM | NCI-H522 > 100 µM | SF-268 26.4 µM | RXF 393 28.3 µM | MDA-MB-435 17 µM | UACC-257 > 31.6 µM | SK-OV-3 > 31.6 µM | Malme-3M > 31.6 µM | MDA-MB-231 15.3 µM | HCC 2998 > 31.6 µM | HOP-92 > 31.6 µM | MCF7 13 µM | CAKI-1 > 31.6 µM | OVCAR-3 > 84.1 µM | LOX IMVI > 31.6 µM | NCI-H226 > 31.6 µM | SN12C > 31.6 µM | UO-31 > 10 µM | NCI-H460 15.6 µM | Hs-578T 18.3 µM
